Drawing on patent US20250057910A1, “Application of Polypeptide in Preparation of Product for Preventing or Treating Skin Injury Diseases” (Sichuan Gooddoctor Panxi Pharmaceutical Co., Ltd., priority 2021, published 2025), this text covers Wound healing rate for two substances.

Ends that are not written are not given here.

This experiment has as its system SD rats. As to the kind of experiment: Healing of full-layer skin defect wound in SD rats. The experiment is classed as in vivo, rat. Conditions: SD rats, topical once a day, polypeptide 50 μg/cm^2, comparative polypeptide 1 41.90 μg/cm^2, comparative polypeptide 2 52.66 μg/cm^2, Mean ± SD, n = 8. The method, then:
Experimental animals: SD male rats, SPF grade, 6 weeks old, weighing 180-220 g, from Beijing Vital River Laboratory Animal Technology Co., Ltd., with the experimental animal quality certification number of NO.110011220109610345, and the experimental animal use license number of SCXK (Beijing) 2021-0011.
Experimental method: SD rats were randomly divided into […] based on the body weight with 8 animals in each group, namely, vehicle group, the polypeptide group (50 μg/cm^2), comparative polypeptide 1 group (41.90 μg/cm^2) and comparative polypeptide 2 group (52.66 μg/cm^2). The amino acid sequence of comparative polypeptide 1 is Glu-Pro-Val-Pro-Leu; and the amino acid sequence of comparative polypeptide 2 is Pro-Ala-Ala-Glu-Pro-Val-Pro-Leu-Val-Lys-Gln-Glu.
After each experimental rat was anesthetized by intraperitoneal injection of 2% pentobarbital sodium (0.2 mL/100 g), a 2 cm^2 full-layer skin defect wound was prepared at each of both sides of the back spine. After hemostasis of the wound, the corresponding drug was administered at the wound locally by group. Each group was administered once a day, with a dosed volume of 72 μL/wound each time, for 14 consecutive days. After the administration, the wound was covered with a sterile vaseline gauze (5 cm*5 cm), and bandaged with multi-layer sterile gauzes. After the wound surgery, the wound was photographed, and the wound area was recorded as the baseline value (the wound was recorded as Day0). During the administration period, the areas of the wounds were photographed and measured 3 times a week, and the healing was observed.

“Glu-Pro-Val-Pro-Leu (EPVPL; printed: Glu-Pro-Val-Pro-Leu) [Comparative polypeptide 1]”: the Wound healing rate by setting is: (Day 0 (baseline)) 0.00 ± 0.00%; (Day 3) 21.13 ± 17.43%; (Day 5) 40.18 ± 17.43%; (Day 7) 68.84 ± 7.64%; (Day 10) 88.90 ± 8.40%.

Consider “PAAEPVPLVKQE [Comparative polypeptide 2]”, for which the Wound healing rate was found to be 0.00 ± 0.00% (Day 0 (baseline)); 17.21 ± 22.78% (Day 3); 50.08 ± 16.55% (Day 5); 65.26 ± 14.46% (Day 7); 90.34 ± 3.04% (Day 10).
